Experimental data as given in PubChem BioAssay (NCI).
“And” between values parts separate entries of the source, which are not always exact repeats. Equal values may be shown once.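 Where inhibition never reached the appropriate level, the endpoint shown equals the highest concentration tested. Otherwise, values were interpolated linearly from a five-concentration, 48-hour dose response in 96-well plates. GI50: concentration for 50% inhibition of growth. Definition used: TGI = concentration required for complete inhibition of growth.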

system: SW-620 colon; assay: growth of human tumour cells (NCI), 48 h

`COc1ccc(/C(C)=C(\c2ccc(OCCN3CCCCCC3)cc2)c2ccc(OC(=O)C3CCCCC3)cc2)cc1` gave a GI50 of 0.948 µM.

With `COc1ccc(/C(C)=C(\c2ccc(OCCN3CCCCCC3)cc2)c2ccc(OC(=O)C3CCCCC3)cc2)cc1` the TGI was 3.15 µM.

system: BT-549 breast; assay: growth of human tumour cells (NCI), 48 h

For `CC(C)CC(C/C=C1/CC(CO)(COC(=O)C(C)(C)C)OC1=O)CC(C)C` (stereo not given), the TGI was 24.6 µM and 31 µM.
With `CN(C)C(=S)SSC(=S)N(C)C` the TGI was 30.6 µM and 31.3 µM and 28.4 µM.

Going from `O=C(Nc1cc(Nc2ncccc2-c2ncnc3nc[nH]c23)ccc1F)c1cc(C(F)(F)F)cc(C(F)(F)F)c1` to `COc1ccc(-c2nn(-c3cccc(Cl)c3)cc2-c2cc(-c3ccccc3)[nH]c(=O)c2C#N)cc1`, the GI50 falls from 2.87 µM to 1.46 µM (2-fold).

Compared with `COc1cc(/C=C\c2cc(OC)c(OC)c(OC)c2)cc(N/C=C\C(=O)c2c[nH]c3ccccc23)c1OC`, `Nc1cc(Br)c(-c2nnc(CCC(=O)c3nc4ccccc4[nH]3)o2)c(Br)c1` is 4.2-fold higher in GI50: 1.64 µM for the first, 6.82 µM for the second.

Going from `CC(C)(C)[Si](C)(C)OC1[C@@H](CNC(=O)NC(=O)CCl)O[C@@H](n2cnc3c(N)ncnc32)[C@H]1O[Si](C)(C)C(C)(C)C` (stereo not given in full) to `COc1ccc(/C(C)=C(\c2ccc(OCCN3CCCCCC3)cc2)c2ccc(OC(=O)C3CCCCC3)cc2)cc1`, the GI50 rises from 0.869 µM to 1.53 µM (1.8-fold).

First: O=C(Nc1cc(Nc2ncccc2-c2ncnc3nc[nH]c23)ccc1F)c1cc(C(F)(F)F)cc(C(F)(F)F)c1
Second: COc1ccc(-c2nn(-c3cccc(Cl)c3)cc2-c2cc(-c3ccccc3)[nH]c(=O)c2C#N)cc1
The TGI of the first is 2.7-fold lower: 6.54 µM for the first, 17.8 µM for the second.

Going from `COc1cc(/C=C\c2cc(OC)c(OC)c(OC)c2)cc(N/C=C\C(=O)c2c[nH]c3ccccc23)c1OC` to `Nc1cc(Br)c(-c2nnc(CCC(=O)c3nc4ccccc4[nH]3)o2)c(Br)c1`, the TGI rises from 3.38 µM to > 100 µM.

Going from `Cn1c(=O)c2c(nc(C(=N)SCC(=O)O)n2C)n(C)c1=O` to `CC(C)(C)[Si](C)(C)OC1[C@@H](CNC(=O)NC(=O)CCl)O[C@@H](n2cnc3c(N)ncnc32)[C@H]1O[Si](C)(C)C(C)(C)C` (stereo not given in full), the TGI falls from > 100 µM to 1.73 µM.

Work on `COc1ccc(/C(C)=C(\c2ccc(OCCN3CCCCCC3)cc2)c2ccc(OC(=O)C3CCCCC3)cc2)cc1` yielded a TGI of 3.36 µM.

system: SNB-75 CNS; assay: growth of human tumour cells (NCI), 48 h

In the case of `CC(C)CC(C/C=C1/CC(CO)(COC(=O)C(C)(C)C)OC1=O)CC(C)C` (stereo not given), the TGI is reported as 23.6 µM and 26.6 µM.
With `CN(C)C(=S)SSC(=S)N(C)C` the TGI was 38.5 µM and > 100 µM.

First: O=C(Nc1cc(Nc2ncccc2-c2ncnc3nc[nH]c23)ccc1F)c1cc(C(F)(F)F)cc(C(F)(F)F)c1
Second: COc1ccc(-c2nn(-c3cccc(Cl)c3)cc2-c2cc(-c3ccccc3)[nH]c(=O)c2C#N)cc1
The GI50 of the first is 1.6-fold higher: 1.9 µM for the first, 1.17 µM for the second.

Compared with `CN(C)C(=S)SSC(=S)N(C)C`, `CC(C)(C)[Si](C)(C)OC1[C@@H](CNC(=O)NC(=O)CCl)O[C@@H](n2cnc3c(N)ncnc32)[C@H]1O[Si](C)(C)C(C)(C)C` (stereo not given in full) is 18-fold lower in GI50: 15.2 µM for the first, 0.867 µM for the second.

First: COc1cc(/C=C\c2cc(OC)c(OC)c(OC)c2)cc(N/C=C\C(=O)c2c[nH]c3ccccc23)c1OC
Second: Nc1cc(Br)c(-c2nnc(CCC(=O)c3nc4ccccc4[nH]3)o2)c(Br)c1
The GI50 of the first is 2-fold lower: 1.47 µM for the first, 2.96 µM for the second.

`COc1ccc(/C(C)=C(\c2ccc(OCCN3CCCCCC3)cc2)c2ccc(OC(=O)C3CCCCC3)cc2)cc1` was tested, and the GI50 was 1.6 µM.

Going from `O=C(Nc1cc(Nc2ncccc2-c2ncnc3nc[nH]c23)ccc1F)c1cc(C(F)(F)F)cc(C(F)(F)F)c1` to `COc1ccc(-c2nn(-c3cccc(Cl)c3)cc2-c2cc(-c3ccccc3)[nH]c(=O)c2C#N)cc1`, the TGI falls from 7.15 µM to 3.61 µM (2-fold).

Going from `COc1cc(/C=C\c2cc(OC)c(OC)c(OC)c2)cc(N/C=C\C(=O)c2c[nH]c3ccccc23)c1OC` to `Nc1cc(Br)c(-c2nnc(CCC(=O)c3nc4ccccc4[nH]3)o2)c(Br)c1`, the TGI rises from 2.92 µM to 20.5 µM (7-fold).

First: Cn1c(=O)c2c(nc(C(=N)SCC(=O)O)n2C)n(C)c1=O
Second: CC(C)(C)[Si](C)(C)OC1[C@@H](CNC(=O)NC(=O)CCl)O[C@@H](n2cnc3c(N)ncnc32)[C@H]1O[Si](C)(C)C(C)(C)C (stereo not given in full)
The TGI of the first is higher: > 100 µM for the first, 2.47 µM for the second.

`COc1ccc(/C(C)=C(\c2ccc(OCCN3CCCCCC3)cc2)c2ccc(OC(=O)C3CCCCC3)cc2)cc1` gave a TGI of 3.88 µM.

system: SR leukemia; assay: growth of human tumour cells (NCI), 48 h

First: CC(C)CC(C/C=C1/CC(CO)(COC(=O)C(C)(C)C)OC1=O)CC(C)C (stereo not given)
Second: CC(C)(C)[Si](C)(C)OC1[C@@H](CNC(=O)NC(=O)CCl)O[C@@H](n2cnc3c(N)ncnc32)[C@H]1O[Si](C)(C)C(C)(C)C (stereo not given in full)
The TGI of the first is 47-fold higher: 26.4 µM for the first, 0.562 µM for the second.

Going from `O=C(Nc1cc(Nc2ncccc2-c2ncnc3nc[nH]c23)ccc1F)c1cc(C(F)(F)F)cc(C(F)(F)F)c1` to `COc1ccc(-c2nn(-c3cccc(Cl)c3)cc2-c2cc(-c3ccccc3)[nH]c(=O)c2C#N)cc1`, the TGI rises from 5.67 µM to 15.8 µM (2.8-fold).

Compared with `COc1cc(/C=C\c2cc(OC)c(OC)c(OC)c2)cc(N/C=C\C(=O)c2c[nH]c3ccccc23)c1OC`, `Nc1cc(Br)c(-c2nnc(CCC(=O)c3nc4ccccc4[nH]3)o2)c(Br)c1` is higher in TGI: 3.38 µM for the first, > 100 µM for the second.

Compared with `Cn1c(=O)c2c(nc(C(=N)SCC(=O)O)n2C)n(C)c1=O`, `COc1ccc(/C(C)=C(\c2ccc(OCCN3CCCCCC3)cc2)c2ccc(OC(=O)C3CCCCC3)cc2)cc1` is 75-fold lower in TGI: 80.2 µM for the first, 1.07 µM for the second.

Compared with `O=C(Nc1cc(Nc2ncccc2-c2ncnc3nc[nH]c23)ccc1F)c1cc(C(F)(F)F)cc(C(F)(F)F)c1`, `COc1ccc(-c2nn(-c3cccc(Cl)c3)cc2-c2cc(-c3ccccc3)[nH]c(=O)c2C#N)cc1` is 3.7-fold higher in GI50: 2.09 µM for the first, 7.74 µM for the second.

Compared with `COc1cc(/C=C\c2cc(OC)c(OC)c(OC)c2)cc(N/C=C\C(=O)c2c[nH]c3ccccc23)c1OC`, `Nc1cc(Br)c(-c2nnc(CCC(=O)c3nc4ccccc4[nH]3)o2)c(Br)c1` is 9-fold higher in GI50: 0.469 µM for the first, 4.2 µM for the second.

First: CC(C)(C)[Si](C)(C)OC1[C@@H](CNC(=O)NC(=O)CCl)O[C@@H](n2cnc3c(N)ncnc32)[C@H]1O[Si](C)(C)C(C)(C)C (stereo not given in full)
Second: COc1ccc(/C(C)=C(\c2ccc(OCCN3CCCCCC3)cc2)c2ccc(OC(=O)C3CCCCC3)cc2)cc1
The GI50 of the first is 1.8-fold lower: 0.162 µM for the first, 0.291 µM for the second.

For `CN(C)C(=S)SSC(=S)N(C)C`, the TGI was 74.6 µM and 27.8 µM and 34.8 µM.

system: SF-268 CNS; assay: growth of human tumour cells (NCI), 48 h

With `CC(C)CC(C/C=C1/CC(CO)(COC(=O)C(C)(C)C)OC1=O)CC(C)C` (stereo not given) the TGI was 26.4 µM and 25.4 µM.
In the case of `CN(C)C(=S)SSC(=S)N(C)C`, the TGI is reported as 29 µM and > 100 µM and 32.8 µM.

`O=C(Nc1cc(Nc2ncccc2-c2ncnc3nc[nH]c23)ccc1F)c1cc(C(F)(F)F)cc(C(F)(F)F)c1` and `COc1ccc(-c2nn(-c3cccc(Cl)c3)cc2-c2cc(-c3ccccc3)[nH]c(=O)c2C#N)cc1` are within 1.5-fold of each other in GI50: 3.17 µM for the first, 2.59 µM for the second.

`COc1cc(/C=C\c2cc(OC)c(OC)c(OC)c2)cc(N/C=C\C(=O)c2c[nH]c3ccccc23)c1OC` and `Nc1cc(Br)c(-c2nnc(CCC(=O)c3nc4ccccc4[nH]3)o2)c(Br)c1` are within 1.5-fold of each other in GI50: 3.57 µM for the first, 5.14 µM for the second.

`CC(C)(C)[Si](C)(C)OC1[C@@H](CNC(=O)NC(=O)CCl)O[C@@H](n2cnc3c(N)ncnc32)[C@H]1O[Si](C)(C)C(C)(C)C` (stereo not given in full) and `COc1ccc(/C(C)=C(\c2ccc(OCCN3CCCCCC3)cc2)c2ccc(OC(=O)C3CCCCC3)cc2)cc1` are within 1.5-fold of each other in GI50: 1.06 µM for the first, 1.16 µM for the second.

`O=C(Nc1cc(Nc2ncccc2-c2ncnc3nc[nH]c23)ccc1F)c1cc(C(F)(F)F)cc(C(F)(F)F)c1` and `COc1ccc(-c2nn(-c3cccc(Cl)c3)cc2-c2cc(-c3ccccc3)[nH]c(=O)c2C#N)cc1` cannot be ordered by TGI: > 10 µM for the first, > 50 µM for the second.

Going from `COc1cc(/C=C\c2cc(OC)c(OC)c(OC)c2)cc(N/C=C\C(=O)c2c[nH]c3ccccc23)c1OC` to `Nc1cc(Br)c(-c2nnc(CCC(=O)c3nc4ccccc4[nH]3)o2)c(Br)c1`, the TGI rises from 15.6 µM to 81.5 µM (5.2-fold).

First: Cn1c(=O)c2c(nc(C(=N)SCC(=O)O)n2C)n(C)c1=O
Second: CC(C)(C)[Si](C)(C)OC1[C@@H](CNC(=O)NC(=O)CCl)O[C@@H](n2cnc3c(N)ncnc32)[C@H]1O[Si](C)(C)C(C)(C)C (stereo not given in full)
The TGI of the first is higher: > 100 µM for the first, 2.09 µM for the second.

`COc1ccc(/C(C)=C(\c2ccc(OCCN3CCCCCC3)cc2)c2ccc(OC(=O)C3CCCCC3)cc2)cc1` showed a TGI of 4.33 µM.

In the case of `CN(C)C(=S)SSC(=S)N(C)C`, the GI50 is reported as 15 µM and 42.7 µM and 16.1 µM.

system: T-47D breast; assay: growth of human tumour cells (NCI), 48 h

In the case of `CC(C)CC(C/C=C1/CC(CO)(COC(=O)C(C)(C)C)OC1=O)CC(C)C` (stereo not given), the TGI is reported as 40.5 µM and 23.9 µM.
In the case of `CN(C)C(=S)SSC(=S)N(C)C`, the TGI is reported as 41.7 µM and 39 µM and 88.2 µM.

First: O=C(Nc1cc(Nc2ncccc2-c2ncnc3nc[nH]c23)ccc1F)c1cc(C(F)(F)F)cc(C(F)(F)F)c1
Second: COc1ccc(-c2nn(-c3cccc(Cl)c3)cc2-c2cc(-c3ccccc3)[nH]c(=O)c2C#N)cc1
The GI50 of the first is 2.6-fold higher: 4.24 µM for the first, 1.64 µM for the second.

Going from `CN(C)C(=S)SSC(=S)N(C)C` to `CC(C)(C)[Si](C)(C)OC1[C@@H](CNC(=O)NC(=O)CCl)O[C@@H](n2cnc3c(N)ncnc32)[C@H]1O[Si](C)(C)C(C)(C)C` (stereo not given in full), the GI50 falls from 15.9 µM to 1.03 µM (15-fold).

Compared with `COc1cc(/C=C\c2cc(OC)c(OC)c(OC)c2)cc(N/C=C\C(=O)c2c[nH]c3ccccc23)c1OC`, `Nc1cc(Br)c(-c2nnc(CCC(=O)c3nc4ccccc4[nH]3)o2)c(Br)c1` is 15-fold higher in GI50: 1.55 µM for the first, 23.4 µM for the second.

Compound `COc1ccc(/C(C)=C(\c2ccc(OCCN3CCCCCC3)cc2)c2ccc(OC(=O)C3CCCCC3)cc2)cc1` has a GI50 of 0.405 µM.

First: O=C(Nc1cc(Nc2ncccc2-c2ncnc3nc[nH]c23)ccc1F)c1cc(C(F)(F)F)cc(C(F)(F)F)c1
Second: COc1ccc(-c2nn(-c3cccc(Cl)c3)cc2-c2cc(-c3ccccc3)[nH]c(=O)c2C#N)cc1
The TGI of the first is higher: > 10 µM for the first, 7.43 µM for the second.

Compared with `COc1cc(/C=C\c2cc(OC)c(OC)c(OC)c2)cc(N/C=C\C(=O)c2c[nH]c3ccccc23)c1OC`, `Nc1cc(Br)c(-c2nnc(CCC(=O)c3nc4ccccc4[nH]3)o2)c(Br)c1` is higher in TGI: 4.51 µM for the first, > 100 µM for the second.

Going from `Cn1c(=O)c2c(nc(C(=N)SCC(=O)O)n2C)n(C)c1=O` to `CC(C)(C)[Si](C)(C)OC1[C@@H](CNC(=O)NC(=O)CCl)O[C@@H](n2cnc3c(N)ncnc32)[C@H]1O[Si](C)(C)C(C)(C)C` (stereo not given in full), the TGI falls from > 100 µM to 2.13 µM.

In the case of `COc1ccc(/C(C)=C(\c2ccc(OCCN3CCCCCC3)cc2)c2ccc(OC(=O)C3CCCCC3)cc2)cc1`, the TGI is reported as 3.33 µM.
